# Laboratory results published in PubChem BioAssay (NCI).
#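 Five compound concentrations were applied to cells in 96-well plates for 48 hours; endpoints were derived by simple linear interpolation of the resulting dose-response curve. Definition used: TGI = concentration required for complete inhibition of growth.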
# Experiments:
# Assay in all cases: NCI anticancer screen, dose series, 48 h
# OVCAR-5 ovarian = system: OVCAR-5 ovarian
# PC-3 prostate = system: PC-3 prostate
# LOX IMVI melanoma = system: LOX IMVI melanoma
# MDA-MB-435 = system: MDA-MB-435
# HOP-62 NSCLC = system: HOP-62 NSCLC
# U251 CNS = system: U251 CNS
# HL-60(TB) leukemia = system: HL-60(TB) leukemia
# MDA-MB-231 breast = system: MDA-MB-231 breast
# NCI-H522 lung = system: NCI-H522 lung
# NCI-H23 lung = system: NCI-H23 lung
# NCI-H226 lung = system: NCI-H226 lung
# SK-MEL-5 melanoma = system: SK-MEL-5 melanoma
# SK-MEL-2 melanoma = system: SK-MEL-2 melanoma
# 786-0 renal = system: 786-0 renal
# IGROV1 ovarian = system: IGROV1 ovarian
# MCF7 breast = system: MCF7 breast
# SW-620 colon = system: SW-620 colon
# M14 melanoma = system: M14 melanoma
# HOP-92 NSCLC = system: HOP-92 NSCLC
# T-47D breast = system: T-47D breast
# OVCAR-8 ovarian = system: OVCAR-8 ovarian
# NCI-H460 lung = system: NCI-H460 lung
# HCC-2998 colon = system: HCC-2998 colon
# MALME-3M melanoma = system: MALME-3M melanoma
# RPMI-8226 leukemia = system: RPMI-8226 leukemia
# MOLT-4 leukemia = system: MOLT-4 leukemia
# UO-31 renal = system: UO-31 renal
# NCI/ADR-RES ovarian = system: NCI/ADR-RES ovarian
# SNB-19 CNS = system: SNB-19 CNS
# COLO 205 colon = system: COLO 205 colon
# K-562 leukemia = system: K-562 leukemia
# KM12 colon = system: KM12 colon
# HT29 colon = system: HT29 colon
# A549 NSCLC = system: A549 NSCLC
# CAKI-1 renal = system: CAKI-1 renal
# RXF 393 renal = system: RXF 393 renal
# UACC-62 melanoma = system: UACC-62 melanoma
# SF-268 CNS = system: SF-268 CNS
# SN12C renal = system: SN12C renal
# OVCAR-4 ovarian = system: OVCAR-4 ovarian
# SF-539 CNS = system: SF-539 CNS
# SK-MEL-28 melanoma = system: SK-MEL-28 melanoma
# MDA-N = system: MDA-N
# HS 578T breast = system: HS 578T breast
# EKVX NSCLC = system: EKVX NSCLC
# HCT-116 colon = system: HCT-116 colon
# HCT-15 colon = system: HCT-15 colon
# SR leukemia = system: SR leukemia
# A498 renal = system: A498 renal
# ACHN renal = system: ACHN renal
# SNB-75 CNS = system: SNB-75 CNS
# DU-145 prostate = system: DU-145 prostate
# CCRF-CEM leukemia = system: CCRF-CEM leukemia
# UACC-257 melanoma = system: UACC-257 melanoma
# TK-10 renal = system: TK-10 renal
# SF-295 CNS = system: SF-295 CNS
# OVCAR-3 ovarian = system: OVCAR-3 ovarian
# SK-OV-3 ovarian = system: SK-OV-3 ovarian
smiles,measurement,setting,value
C/C(O)=c1\cc(C#N)c(=C(C#N)C#N)nc1C,TGI,OVCAR-5 ovarian,> 100 µM
same,TGI,PC-3 prostate,> 100 µM
same,TGI,LOX IMVI melanoma,> 100 µM
same,TGI,MDA-MB-435,> 100 µM
same,TGI,HOP-62 NSCLC,> 100 µM
same,TGI,U251 CNS,> 100 µM
same,TGI,HL-60(TB) leukemia,> 100 µM
same,TGI,MDA-MB-231 breast,> 100 µM
same,TGI,NCI-H522 lung,> 100 µM
same,TGI,NCI-H23 lung,> 100 µM
same,TGI,NCI-H226 lung,> 100 µM
same,TGI,SK-MEL-5 melanoma,> 100 µM
same,TGI,SK-MEL-2 melanoma,> 100 µM
same,TGI,786-0 renal,> 100 µM
same,TGI,IGROV1 ovarian,> 100 µM
same,TGI,MCF7 breast,> 100 µM
same,TGI,SW-620 colon,> 100 µM
same,TGI,M14 melanoma,> 100 µM
same,TGI,HOP-92 NSCLC,> 100 µM
same,TGI,T-47D breast,> 100 µM
same,TGI,OVCAR-8 ovarian,> 100 µM
same,TGI,NCI-H460 lung,> 100 µM
same,TGI,HCC-2998 colon,> 100 µM
same,TGI,MALME-3M melanoma,> 100 µM
same,TGI,RPMI-8226 leukemia,> 100 µM
same,TGI,MOLT-4 leukemia,> 100 µM
same,TGI,UO-31 renal,> 100 µM
same,TGI,NCI/ADR-RES ovarian,> 100 µM
same,TGI,SNB-19 CNS,> 100 µM
same,TGI,COLO 205 colon,> 100 µM
same,TGI,K-562 leukemia,> 100 µM
same,TGI,KM12 colon,> 100 µM
same,TGI,HT29 colon,> 100 µM
same,TGI,A549 NSCLC,> 100 µM
same,TGI,CAKI-1 renal,> 100 µM
same,TGI,RXF 393 renal,> 100 µM
same,TGI,UACC-62 melanoma,> 100 µM
same,TGI,SF-268 CNS,> 100 µM
same,TGI,SN12C renal,> 100 µM
same,TGI,OVCAR-4 ovarian,> 100 µM
same,TGI,SF-539 CNS,> 100 µM
same,TGI,SK-MEL-28 melanoma,> 100 µM
same,TGI,MDA-N,> 100 µM
same,TGI,HS 578T breast,> 100 µM
same,TGI,EKVX NSCLC,> 100 µM
same,TGI,HCT-116 colon,> 100 µM
same,TGI,HCT-15 colon,> 100 µM
same,TGI,SR leukemia,> 100 µM
same,TGI,A498 renal,> 100 µM
same,TGI,ACHN renal,> 100 µM
same,TGI,SNB-75 CNS,> 100 µM
same,TGI,DU-145 prostate,> 100 µM
same,TGI,CCRF-CEM leukemia,> 100 µM
Cc1nc2nn[nH]n2c(=O)c1CCO,TGI,OVCAR-5 ovarian,> 100 µM
same,TGI,PC-3 prostate,> 100 µM
same,TGI,LOX IMVI melanoma,> 100 µM
same,TGI,MDA-MB-435,> 100 µM
same,TGI,UACC-257 melanoma,> 100 µM
same,TGI,HOP-62 NSCLC,> 100 µM
same,TGI,U251 CNS,> 100 µM
same,TGI,HL-60(TB) leukemia,> 100 µM
same,TGI,MDA-MB-231 breast,> 100 µM
same,TGI,NCI-H522 lung,> 100 µM
same,TGI,NCI-H23 lung,> 100 µM
same,TGI,NCI-H226 lung,> 100 µM
same,TGI,SK-MEL-5 melanoma,> 100 µM
same,TGI,SK-MEL-2 melanoma,> 100 µM
same,TGI,786-0 renal,> 100 µM
same,TGI,IGROV1 ovarian,> 100 µM
same,TGI,MCF7 breast,> 100 µM
same,TGI,SW-620 colon,> 100 µM
same,TGI,M14 melanoma,> 100 µM
same,TGI,TK-10 renal,> 100 µM
same,TGI,SF-295 CNS,> 100 µM
same,TGI,HOP-92 NSCLC,> 100 µM
same,TGI,OVCAR-3 ovarian,> 100 µM
same,TGI,T-47D breast,> 100 µM
same,TGI,OVCAR-8 ovarian,> 100 µM
same,TGI,NCI-H460 lung,> 100 µM
same,TGI,HCC-2998 colon,> 100 µM
same,TGI,MALME-3M melanoma,> 100 µM
same,TGI,RPMI-8226 leukemia,> 100 µM
same,TGI,MOLT-4 leukemia,> 100 µM
same,TGI,UO-31 renal,> 100 µM
same,TGI,NCI/ADR-RES ovarian,> 100 µM
same,TGI,SNB-19 CNS,> 100 µM
same,TGI,COLO 205 colon,> 100 µM
same,TGI,K-562 leukemia,> 100 µM
same,TGI,KM12 colon,> 100 µM
same,TGI,HT29 colon,> 100 µM
same,TGI,A549 NSCLC,> 100 µM
same,TGI,SK-OV-3 ovarian,> 100 µM
same,TGI,CAKI-1 renal,> 100 µM
same,TGI,RXF 393 renal,> 100 µM
same,TGI,UACC-62 melanoma,> 100 µM
same,TGI,SF-268 CNS,> 100 µM
same,TGI,SN12C renal,> 100 µM
same,TGI,OVCAR-4 ovarian,> 100 µM
same,TGI,SF-539 CNS,> 100 µM
same,TGI,SK-MEL-28 melanoma,> 100 µM
same,TGI,MDA-N,> 100 µM
same,TGI,HS 578T breast,> 100 µM
same,TGI,EKVX NSCLC,> 100 µM
same,TGI,HCT-116 colon,> 100 µM
same,TGI,HCT-15 colon,> 100 µM
same,TGI,SR leukemia,> 100 µM
same,TGI,A498 renal,> 100 µM
same,TGI,ACHN renal,> 100 µM
same,TGI,SNB-75 CNS,85.7 µM
same,TGI,DU-145 prostate,> 100 µM
same,TGI,CCRF-CEM leukemia,> 100 µM
